ChEMBL document CHEMBL2424615, “Design, synthesis, and characterization of novel tetrahydropyran-based bacterial topoisomerase inhibitors with potent anti-gram-positive activity” (J Med Chem, 2013)

Tests used:
[1] = biological target: hERG (KCNH2) (Homo sapiens, UniProt Q12809); test: Inhibition of human ERG expressed in CHO cells at 10 uM after 3 mins by patch clamp assay relative to control; assay type: cell-based; conditions: CHO cells that express human ERG
[2] = biological target: DNA gyrase (Staphylococcus aureus, UniProt P0A0K8+P20831); test: Inhibition of wild type Staphylococcus aureus DNA gyrase subunit 2GyrA/2GyrB assessed as pBR322 supercoiling after 1 hr; assay type: protein-complex assay
[3] = system: Staphylococcus aureus; test: Antibacterial activity against NXL-101-resistant Staphylococcus aureus A-234 harboring DNA gyrase subunit A D83N mutant assessed as growth inhibition by broth microdilution method; assay type: functional
[4] = system: Escherichia coli; test: Antibacterial activity against wild type Escherichia coli ATCC 25922 assessed as growth inhibition by broth microdilution method; assay type: functional
[5] = system: Pseudomonas aeruginosa; test: Antibacterial activity against wild type Pseudomonas aeruginosa ATCC 27853 assessed as growth inhibition by broth microdilution method; assay type: functional
[6] = system: Streptococcus pneumoniae; test: Antibacterial activity against wild type Streptococcus pneumoniae ATCC 49619 assessed as growth inhibition by broth microdilution method; assay type: functional
[7] = system: Staphylococcus aureus; test: Antibacterial activity against wild type Staphylococcus aureus ATCC 29213 assessed as growth inhibition by broth microdilution method; assay type: functional
[8] = Inhibition of wild type Escherichia coli ATCC 25922 DNA gyrase subunit 2GyrA/2GyrB assessed as pBR322 supercoiling after 1 hr
[9] = Inhibition of wild type Escherichia coli ATCC 25922 DNA topoisomerase-4 subunit 2ParC/2ParE assessed as pBR322 relaxation after 1 hr
[10] = biological target: Topoisomerase IV (Staphylococcus aureus, UniProt P0C1S7+P0C1U9); test: Inhibition of wild type Staphylococcus aureus ATCC 29213 topoisomerase-4 subunit 2GrlA/2GrlB assessed as pBR322 relaxation after 1 hr; assay type: protein-complex assay

`COc1ccc2nccc([C@@H](O)[C@H](O)[C@@H]3CC[C@@H](NCc4ccc5c(n4)NC(=O)CS5)CO3)c2n1` gave an inhibition at 0.05 h, 10 µM [1] of 36%, an IC50 [2] of less than 30 nM and an MIC [3] of 0.5 µg/mL. The MIC [4] was 1 µg/mL, the MIC [5] was greater than 8 µg/mL and the MIC [6] was 0.06 µg/mL. It also gave an MIC [7] of 0.03 µg/mL, an IC50 [8] of 500 nM and an IC50 [9] of 125 nM. The IC50 [10] was 500 nM.

Work on `COc1ccc2nccc([C@@H](O)[C@H](O)[C@@H]3CC[C@@H](NCc4cc5c(cn4)OCCO5)CO3)c2n1` yielded an inhibition at 0.05 h, 10 µM [1] of 27%, an IC50 [2] of 30 nM and an MIC [3] of 4 µg/mL. It also gave an MIC [4] of 8 µg/mL, an MIC [5] greater than 8 µg/mL and an MIC [6] of 0.5 µg/mL. For the same compound, the MIC [7] was 0.06 µg/mL, the IC50 [8] was 8000 nM and the IC50 [9] was 125 nM. For the same compound, the IC50 [10] was 8000 nM.

`COc1ccc2nccc([C@@H](O)[C@H](O)[C@H]3CC[C@H](NCc4ccc5c(n4)NC(=O)CS5)CO3)c2n1` gave an inhibition at 0.05 h, 10 µM [1] of 45%, an IC50 [2] of 125 nM and an MIC [3] greater than 8 µg/mL. It also gave an MIC [4] of 4 µg/mL, an MIC [5] greater than 8 µg/mL and an MIC [6] of 0.5 µg/mL. For the same compound, the MIC [7] was 0.5 µg/mL, the IC50 [8] was 8000 nM and the IC50 [9] was 125 nM. For the same compound, the IC50 [10] was greater than 8000 nM.

Compound `COc1ccc2nccc([C@H](O)[C@@H](O)[C@@H]3CC[C@@H](NCc4ccc5c(n4)NC(=O)CS5)CO3)c2n1` has an inhibition at 0.05 h, 10 µM [1] of 93%, an IC50 [2] of 500 nM and an MIC [3] greater than 8 µg/mL. The MIC [4] was greater than 8 µg/mL, the MIC [5] was greater than 8 µg/mL and the MIC [6] was 1 µg/mL. For the same compound, the MIC [7] was 1 µg/mL, the IC50 [8] was 8000 nM and the IC50 [9] was 125 nM. The IC50 [10] was greater than 8000 nM.

For `COc1ccc2nccc([C@H](O)[C@@H](O)[C@H]3CC[C@H](NCc4ccc5c(n4)NC(=O)CS5)CO3)c2n1`, the inhibition at 0.05 h, 10 µM [1] was 70%, the IC50 [2] was 30 nM and the MIC [3] was 0.5 µg/mL. It also gave an MIC [4] of 1 µg/mL, an MIC [5] greater than 8 µg/mL and an MIC [6] of 0.03 µg/mL. It also gave an MIC [7] of 0.03 µg/mL, an IC50 [8] of 500 nM and an IC50 [9] of 125 nM. For the same compound, the IC50 [10] was 8000 nM.

In the case of `COc1ccc2cccc([C@@H](O)[C@H](O)[C@@H]3CC[C@@H](NCc4ccc5c(n4)NC(=O)CS5)CO3)c2n1`, the inhibition at 0.05 h, 10 µM [1] is reported as 72%, the IC50 [2] is reported as 30 nM and the MIC [3] is reported as 0.25 µg/mL. For the same compound, the MIC [4] was 2 µg/mL, the MIC [5] was greater than 8 µg/mL and the MIC [6] was 0.06 µg/mL. The MIC [7] was 0.03 µg/mL, the IC50 [8] was 125 nM and the IC50 [9] was 125 nM. For the same compound, the IC50 [10] was 500 nM.

`COc1cnc2cccc([C@@H](O)[C@H](O)[C@@H]3CC[C@@H](NCc4ccc5c(n4)NC(=O)CS5)CO3)c2c1` showed an inhibition at 0.05 h, 10 µM [1] of 17%, an IC50 [2] of 125 nM and an MIC [3] greater than 8 µg/mL. It also gave an MIC [4] of 8 µg/mL, an MIC [5] greater than 8 µg/mL and an MIC [6] of 0.25 µg/mL. For the same compound, the MIC [7] was 0.25 µg/mL, the IC50 [8] was 2000 nM and the IC50 [9] was 125 nM. It also gave an IC50 [10] of 500 nM.

Work on `COc1cnc2ccc(F)c([C@@H](O)[C@H](O)[C@@H]3CC[C@@H](NCc4ccc5c(n4)NC(=O)CS5)CO3)c2n1` yielded an inhibition at 0.05 h, 10 µM [1] of 44%, an IC50 [2] of 30 nM and an MIC [3] of 1 µg/mL. The MIC [4] was 4 µg/mL, the MIC [5] was greater than 8 µg/mL and the MIC [6] was 0.5 µg/mL. For the same compound, the MIC [7] was 0.06 µg/mL, the IC50 [8] was 500 nM and the IC50 [9] was 125 nM. The IC50 [10] was 2000 nM.

Work on `COc1ccc2nccc(OC[C@@H]3CC[C@@H](NCc4ccc5c(n4)NC(=O)CS5)CO3)c2n1` yielded an inhibition at 0.05 h, 10 µM [1] of 70%, an IC50 [2] of 125 nM and an MIC [3] of 4 µg/mL. For the same compound, the MIC [4] was 4 µg/mL, the MIC [5] was greater than 8 µg/mL and the MIC [6] was 0.25 µg/mL. It also gave an MIC [7] of 0.5 µg/mL, an IC50 [8] of 2000 nM and an IC50 [10] of 8000 nM.

For `COc1ccc2nccc(OC[C@@H]3CC[C@@H](NCc4cc5c(cn4)OCCO5)CO3)c2n1`, the inhibition at 0.05 h, 10 µM [1] was 19%, the IC50 [2] was 500 nM and the MIC [3] was greater than 8 µg/mL. The MIC [4] was greater than 8 µg/mL, the MIC [5] was greater than 8 µg/mL and the MIC [6] was 4 µg/mL. The MIC [7] was 2 µg/mL, the IC50 [8] was greater than 8000 nM and the IC50 [10] was greater than 8000 nM.

In the case of `COc1ccc2nccc(NC(=O)[C@@H]3CC[C@@H](NCc4ccc5c(n4)NC(=O)CS5)CO3)c2n1`, the inhibition at 0.05 h, 10 µM [1] is reported as 99%, the IC50 [2] is reported as 125 nM and the MIC [3] is reported as greater than 8 µg/mL. It also gave an MIC [4] greater than 8 µg/mL, an MIC [5] greater than 8 µg/mL and an MIC [6] of 0.5 µg/mL. The MIC [7] was 0.25 µg/mL, the IC50 [8] was 500 nM and the IC50 [10] was 2000 nM.

In the case of `COc1ccc2nccc(NC(=O)[C@@H]3CC[C@@H](NCc4cc5c(cn4)OCCO5)CO3)c2n1`, the inhibition at 0.05 h, 10 µM [1] is reported as 71%, the IC50 [2] is reported as 125 nM and the MIC [3] is reported as greater than 8 µg/mL. The MIC [4] was greater than 8 µg/mL, the MIC [5] was greater than 8 µg/mL and the MIC [6] was 0.25 µg/mL. It also gave an MIC [7] of 0.125 µg/mL, an IC50 [8] greater than 8000 nM and an IC50 [10] greater than 8000 nM.

For `COc1ccc2nccc(C(O)C[C@@H]3CC[C@@H](NCc4cc5c(cn4)OCCO5)CO3)c2n1` (mixture of isomers), the inhibition at 0.05 h, 10 µM [1] was 66%, the IC50 [2] was 125 nM and the MIC [3] was greater than 8 µg/mL. The MIC [4] was greater than 8 µg/mL, the MIC [5] was greater than 8 µg/mL and the MIC [6] was 0.125 µg/mL. For the same compound, the MIC [7] was 0.03 µg/mL, the IC50 [8] was greater than 8000 nM and the IC50 [10] was greater than 8000 nM.
